Type in all cases: cell-based
For experiment [1], the system named is human T-lymphocyte CEM. Nature of the experiment: Cell proliferation (Coulter count) assay, CEM. The following applies: 72 h, read-out: absolute IC50, CEM. From the text: (§1) Lovo: cell line derived from a metastatic site in a patient with colon cancer MCF7: human oestrogen sensitive mammary epithelial cell line PC3: human prostate cancer cell line A549: cancerous lung tissue derived cells L1210: lymphoblast cell line derived from a mouse with lymphocytic leukaemia FM3A: mammary carcinoma murine cells CEM: human T-lymphoblasts, derived from the blood of a patient with acute lymphoblastic leukaemia HeLa: epithelial cells from a patient with cervical adenocarcinoma
(§2) Murine leukemia L1210, human T-lymphocyte CEM, and human cervix carcinoma HeLa cells were obtained from the American Type Culture Collection (ATCC) (Rockville, Md.). All cells were maintained in Dulbecco's modified Eagle's medium (DMEM) (Invitrogen, Carlsbad, Calif.) with 10% fetal bovine serum (FBS) (Biochrom AG, Berlin, Germany), 10 mM Hepes, and 1 mM sodiumpyruvate (Invitrogen). Cells were grown at 37° C. in a humidified incubator with a gas phase of 5% CO2. Monolayer cells (HeLa and […]) were seeded in 96-well microtiter plates (Nunc, Roskilde, Denmark) at 10 000 cells/well. After 24 h, an equal volume of fresh medium containing the test compounds was added. On day 5, cells were trypsinized and counted in a Coulter counter (Analis, Suarlee, Belgium). Suspension cells (L1210, CEM) were seeded in 96-well microtiter plates (Nunc) at 60 000 cells/well in the presence of a given amount of the test compounds. The cells were allowed to proliferate for 48 h (L1210) or 72 h (CEM) and were then counted in a Coulter counter. The 50% inhibitory concentration (IC50) was defined as the compound concentration required to reduce cell proliferation by 50%. The cytostatic activity of the compounds was determined after 3 days, as outlined above.

The subject of experiment [2] is Murine leukemia L1210. Nature of the experiment: Cell proliferation (Coulter count) assay, L1210. The settings on record: Mus musculus, 48 h, read-out: absolute IC50, L1210.
Source text: as §1, §2

Experiment [3] concerns human cervix carcinoma HeLa cells. Nature of the experiment: Cell proliferation (Coulter count) assay, HeLa. The following applies: 120 h, cell count on day 5, read-out: absolute IC50, HeLa.
Source text: as §1, §2

Structures are written as SMILES.

Consider `CCOC(=O)[C@H](C)NP(=O)(OC[C@H]1O[C@@H](n2c(Cl)nc3c(N)ncnc32)C(O)C1O)Oc1cccc2ccccc12` (stereo partly drawn) [F, 5′-([(Ethyloxy-L-alanin-N-yl)-naphth-1-yl]-phosphatyl) 8-chloroadenosine], for which the IC50 in experiment [1] fell in the range of 5 to 15 µM; in experiment [2], 15 to 100 µM; in experiment [3] it was 0.1 to 5 µM.

Take `C[C@H](NP(=O)(N[C@@H](C)C(=O)OCc1ccccc1)OC[C@H]1O[C@@H](n2c(Cl)nc3c(N)ncnc32)C(O)C1O)C(=O)OCc1ccccc1` (stereo partly drawn) [AB, 8-Chloroadenosine 5′-O-bis(benzyloxy-L-alanin-N-yl) phosphate]: the IC50 in experiment [1] lay in the range of 0.1 to 5 µM; in experiment [2], 5 to 15 µM; in experiment [3], 0.1 to 5 µM.

Turning to `CCOC(=O)CNP(=O)(OC[C@H]1O[C@@H](n2c(Cl)nc3c(N)ncnc32)C(O)C1O)Oc1cccc2ccccc12` (stereo partly drawn) [N, 5′-([(ethyloxy-glycin-N-yl)-naphth-1-yl]-phosphatyl) 8-chloroadenosine], the IC50 in experiment [1] is 15 to 100 µM; in experiment [2], 15 to 100 µM; in experiment [3] it was 0.1 to 5 µM.

For `Nc1ncnc2c1nc(Cl)n2[C@@H]1O[C@H](COP(=O)(NCC(=O)OC2CCCCC2)Oc2cccc3ccccc23)C(O)C1O` (stereo partly drawn) [M, 5′-([(Cyclohexyloxy-glycin-N-yl)-naphth-1-yl]-phosphatyl) 8-chloroadenosine], the IC50 in experiment [1], in experiment [2] and in experiment [3] was 15 to 100 µM each time.

For `CCCCCOC(=O)[C@H](CC(C)C)NP(=O)(OC[C@H]1O[C@@H](n2c(Cl)nc3c(N)ncnc32)C(O)C1O)Oc1cccc2ccccc12` (stereo partly drawn) [I, 5′-([(Pent-1-yloxy-L-leucin-N-yl)-naphth-1-yl]-phosphatyl) 8-chloroadenosine], the figures for the IC50 in experiment [1], in experiment [2] and in experiment [3] were 5 to 15 µM, 5 to 15 µM and 0.1 to 5 µM, respectively.

`C[C@H](NP(=O)(OC[C@H]1O[C@@H](n2c(Cl)nc3c(N)ncnc32)C(O)C1O)Oc1cccc2ccccc12)C(=O)OC1CCCCC1` (stereo partly drawn) [G, 5′-([(Cyclohexyloxy-L-alanin-N-yl)-naphth-1-yl]-phosphatyl) 8-chloroadenosine]: the IC50 in experiment [1] lay within 5 to 15 µM; in experiment [2] it was 15 to 100 µM; in experiment [3], 0.1 to 5 µM.

`CC(C)C[C@H](NP(=O)(OC[C@H]1O[C@@H](n2c(Cl)nc3c(N)ncnc32)C(O)C1O)Oc1cccc2ccccc12)C(=O)OC1CCCCC1` (stereo partly drawn) [J, 5′-([(Cyclohexyloxy-L-leucin-N-yl)-naphth-1-yl]-phosphatyl) 8-chloroadenosine]: the IC50 in experiment [1], in experiment [2] and in experiment [3] was 5 to 15 µM in each case.

As for `CCOC(=O)[C@H](Cc1ccccc1)NP(=O)(OC[C@H]1O[C@@H](n2c(Cl)nc3c(N)ncnc32)C(O)C1O)Oc1cccc2ccccc12` (stereo partly drawn) [S, 5′-([(Ethyloxy-L-phenylalanin-N-yl)-naphth-1-yl]-phosphatyl) 8-chloroadenosine], the IC50 in experiment [1] lay within 5 to 15 µM; in experiment [2], 15 to 100 µM; in experiment [3] it was 0.1 to 5 µM.

As for `CCOC(=O)[C@H](CC(C)C)NP(=O)(OC[C@H]1O[C@@H](n2c(Cl)nc3c(N)ncnc32)C(O)C1O)Oc1cccc2ccccc12` (stereo partly drawn) [K, 5′-([(ethyloxy-L-leucin-N-yl)-naphth-1-yl]-phosphatyl) 8-chloroadenosine], the values for the IC50 in experiment [1], in experiment [2] and in experiment [3] were 5 to 15 µM, 15 to 100 µM and 0.1 to 5 µM, respectively.

As to `Nc1ncnc2c1nc(Cl)n2[C@@H]1O[C@H](COP(=O)(N[C@@H](Cc2ccccc2)C(=O)OC2CCCCC2)Oc2cccc3ccccc23)C(O)C1O` (stereo partly drawn) [R, 5′-([(Cyclohexyloxy-L-phenylalanin-N-yl)-naphth-1-yl]-phosphatyl) 8-chloroadenosine], the values for the IC50 in experiment [1], in experiment [2] and in experiment [3] were 5 to 15 µM, 5 to 15 µM and 0.1 to 5 µM, respectively.

(Values after patent publication US20190375778A1, “ADENOSINE DERIVATIVES FOR USE IN THE TREATMENT OF CANCER” (NuCana plc, priority 2016, published 2019).)
